Laboratory results taken from ChEMBL document CHEMBL1131422, “N-(2-Benzoylphenyl)-L-tyrosine PPARgamma agonists. 1. Discovery of a novel series of potent antihyperglycemic and antihyperlipidemic agents” (J Med Chem, 1998).
Active and inactive are the calls of the source. The calls are words filed in the database; no cut-off is given here.

Tests used:
Mus musculus [1] = assay: Compound was tested in vivo for Antihyperglycemic activity in mice, activity is expressed as percent reduction of plasma glucose.; assay type: functional
Rattus norvegicus [2] = organism: Rattus norvegicus; assay: Compound was tested for Antihyperlipidemic activity in Zucker Diabetic fatty rats, activity is expressed as percent reduction of NEFAs; assay type: functional
[3] = target: T1, Peroxisome proliferator-activated receptor alpha (Mus musculus) (UniProt P23204); assay: Compound was tested functionally in vitro for inducing 50% of the maximum alkaline phosphatase activity (Transactivation) against murine Peroxisome proliferator activated receptor alpha using transfection assay in CV-1 cells; IA = Inactive at 10e-4 M; assay type: functional, cell-based
T1 sequence (whole entry): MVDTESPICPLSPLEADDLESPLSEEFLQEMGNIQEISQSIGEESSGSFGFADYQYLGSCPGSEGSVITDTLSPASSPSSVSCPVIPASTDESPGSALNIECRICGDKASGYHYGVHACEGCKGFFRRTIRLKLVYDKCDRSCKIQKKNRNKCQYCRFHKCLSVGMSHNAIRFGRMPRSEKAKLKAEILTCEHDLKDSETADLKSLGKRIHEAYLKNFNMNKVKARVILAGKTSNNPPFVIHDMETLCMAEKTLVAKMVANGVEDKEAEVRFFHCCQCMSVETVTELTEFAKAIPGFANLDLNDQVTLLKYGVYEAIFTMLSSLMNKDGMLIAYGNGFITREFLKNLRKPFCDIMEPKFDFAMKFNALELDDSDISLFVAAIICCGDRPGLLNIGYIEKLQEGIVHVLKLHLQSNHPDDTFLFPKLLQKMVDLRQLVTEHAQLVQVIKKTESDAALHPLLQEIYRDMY

Mus musculus [4] = organism: Mus musculus; assay: Compound was tested for Antihyperlipidemic activity, activity is expressed as percent reduction of Triglycerides; assay type: functional
Rattus norvegicus [5] = organism: Rattus norvegicus; assay: Compound was tested for Antihyperlipidemic activity in Zucker Diabetic fatty rats, activity is expressed as percent reduction of Triglycerides; assay type: functional
[6] = target: T2, Peroxisome proliferator-activated receptor delta (Mus musculus) (UniProt P35396); assay: Compound was tested functionally in vitro for inducing 50% of the maximum alkaline phosphatase activity (Transactivation) against murine Peroxisome proliferator activated receptor delta using transfection assay in CV-1 cells; IA = Inactive at 10e-4 M; assay type: functional, cell-based
T2 sequence (whole entry): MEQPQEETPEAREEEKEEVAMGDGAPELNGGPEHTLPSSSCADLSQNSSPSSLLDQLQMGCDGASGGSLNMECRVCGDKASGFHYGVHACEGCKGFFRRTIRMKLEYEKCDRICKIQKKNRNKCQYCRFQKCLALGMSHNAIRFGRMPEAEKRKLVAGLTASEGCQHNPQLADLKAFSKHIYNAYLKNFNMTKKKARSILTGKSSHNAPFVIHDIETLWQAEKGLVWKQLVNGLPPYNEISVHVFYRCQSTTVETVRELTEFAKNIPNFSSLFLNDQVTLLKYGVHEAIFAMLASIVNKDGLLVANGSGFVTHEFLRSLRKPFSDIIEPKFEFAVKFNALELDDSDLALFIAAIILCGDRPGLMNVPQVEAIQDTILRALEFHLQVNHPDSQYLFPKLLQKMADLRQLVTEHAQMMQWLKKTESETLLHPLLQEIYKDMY

Mus musculus [7] = organism: Mus musculus; assay: Compound was tested for Antihyperlipidemic activity, activity is expressed as percent increase of body weight
Mus musculus [8] = organism: Mus musculus; assay: Compound was tested for Antihyperlipidemic activity, activity is expressed as percent reduction of NEFAs; assay type: functional
[9] = target: T3, Peroxisome proliferator-activated receptor delta (Homo sapiens) (UniProt Q03181); conditions: CV-1; 10e-4 M
T3 sequence (whole entry): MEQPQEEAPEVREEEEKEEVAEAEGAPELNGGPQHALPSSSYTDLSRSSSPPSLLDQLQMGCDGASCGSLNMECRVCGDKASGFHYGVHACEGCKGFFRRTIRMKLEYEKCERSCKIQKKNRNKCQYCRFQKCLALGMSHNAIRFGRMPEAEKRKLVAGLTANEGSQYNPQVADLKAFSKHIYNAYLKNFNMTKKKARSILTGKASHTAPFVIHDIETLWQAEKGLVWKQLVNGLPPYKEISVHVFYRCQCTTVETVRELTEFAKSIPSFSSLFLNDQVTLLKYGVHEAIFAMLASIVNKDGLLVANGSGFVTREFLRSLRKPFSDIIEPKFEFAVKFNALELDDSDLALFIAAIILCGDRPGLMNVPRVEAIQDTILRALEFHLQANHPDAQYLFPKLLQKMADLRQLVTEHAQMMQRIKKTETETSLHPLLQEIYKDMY
Description: Compound was tested functionally in vitro for inducing 50% of the maximum alkaline phosphatase activity (Transactivation) against human Peroxisome proliferator activated receptor delta using transfection assay in CV-1 cells; IA = Inactive at 10e-4 M

Rattus norvegicus [10] = assay: Compound was tested in vivo for Antihyperglycemic activity in Zucker Diabetic fatty rats, activity is expressed as percent reduction of HbA1C.; assay type: functional
Rattus norvegicus [11] = assay: Compound was tested in vivo for Antihyperglycemic activity in Zucker Diabetic fatty rats, activity is expressed as percent reduction of plasma glucose; assay type: functional
Rattus norvegicus [12] = assay: The compound was tested in vivo for Antihyperglycemic activity in Zucker Diabetic fatty rats, activity is expressed as percent reduction of plasma glucose; assay type: functional
Rattus norvegicus [13] = organism: Rattus norvegicus; assay: The compound was tested for Antihyperlipidemic activity in Zucker Diabetic fatty rats, activity is expressed as percent reduction of Triglycerides; assay type: functional
Rattus norvegicus [14] = organism: Rattus norvegicus; assay: The compound was tested for Antihyperlipidemic activity in Zucker Diabetic fatty rats, activity is expressed as percent reduction of NEFAs; assay type: functional
Rattus norvegicus [15] = assay: The compound was tested in vivo for Antihyperglycemic activity in Zucker Diabetic fatty rats, activity is expressed as percent reduction of HbA1C.; assay type: functional
[16] = target: T4, Peroxisome proliferator-activated receptor gamma (Homo sapiens) (UniProt P37231)
T4 sequence (whole entry): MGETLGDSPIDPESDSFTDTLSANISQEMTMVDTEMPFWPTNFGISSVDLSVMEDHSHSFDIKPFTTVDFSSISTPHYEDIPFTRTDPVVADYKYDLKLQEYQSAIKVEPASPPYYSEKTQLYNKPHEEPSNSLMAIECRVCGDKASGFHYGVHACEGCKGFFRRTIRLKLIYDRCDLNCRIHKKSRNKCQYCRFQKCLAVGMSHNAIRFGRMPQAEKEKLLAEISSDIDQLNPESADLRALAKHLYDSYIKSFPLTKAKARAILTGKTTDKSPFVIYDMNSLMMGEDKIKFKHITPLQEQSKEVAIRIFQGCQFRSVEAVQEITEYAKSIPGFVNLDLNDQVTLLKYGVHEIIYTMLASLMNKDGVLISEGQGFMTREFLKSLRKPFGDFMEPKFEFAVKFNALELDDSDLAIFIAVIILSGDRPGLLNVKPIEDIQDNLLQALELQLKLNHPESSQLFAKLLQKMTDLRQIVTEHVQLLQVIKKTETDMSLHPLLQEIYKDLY
Description: Tested for its ability to bind to Peroxisome proliferator activated receptor gamma using [3H]-BRL 49653 as radioligand in scintillation proximity assay (SPA)

[17] = target: T5, Peroxisome proliferator-activated receptor gamma (Mus musculus, UniProt P37238); assay: Compound was tested functionally in vitro for inducing 50% of the maximum alkaline phosphatase activity (Transactivation) against murine Peroxisome proliferator activated receptor gamma using transfection assay in CV-1 cells; assay type: functional, cell-based
T5 sequence (P37238 whole entry): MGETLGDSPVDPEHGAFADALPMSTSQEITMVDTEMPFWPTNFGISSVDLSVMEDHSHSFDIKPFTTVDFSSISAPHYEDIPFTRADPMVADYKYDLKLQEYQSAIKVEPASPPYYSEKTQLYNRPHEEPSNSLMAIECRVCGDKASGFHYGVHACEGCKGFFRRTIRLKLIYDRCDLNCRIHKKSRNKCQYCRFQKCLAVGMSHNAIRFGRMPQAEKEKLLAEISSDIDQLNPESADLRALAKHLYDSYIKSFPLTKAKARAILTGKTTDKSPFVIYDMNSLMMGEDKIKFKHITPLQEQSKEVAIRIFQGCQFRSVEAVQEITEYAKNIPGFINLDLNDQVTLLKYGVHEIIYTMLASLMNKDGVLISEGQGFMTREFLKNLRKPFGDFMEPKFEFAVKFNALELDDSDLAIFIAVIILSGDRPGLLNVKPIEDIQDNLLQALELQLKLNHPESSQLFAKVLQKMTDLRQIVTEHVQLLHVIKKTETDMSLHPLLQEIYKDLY

[18] = target: T6, Peroxisome proliferator-activated receptor gamma (Homo sapiens, UniProt P37231)
T6 sequence (P37231 whole entry): T4 sequence (whole entry)
Description: (§1) Activation of peroxisome proliferator activated receptor gamma measured by induction of 50% of maximum alkaline phosphatase activity, transfection assay in CV-1 cells

[19] = target: T6, Peroxisome proliferator-activated receptor gamma; remark: listed apart in the source
Description: In vitro binding to peroxisome proliferator activated receptor gamma (PPAR gamma) using [3H]-BRL 49653 as radioligand in scintillation proximity assay (SPA)

[20] = target: T6, Peroxisome proliferator-activated receptor gamma; conditions: cv-1
Description: as §1

[21] = target: T7, Peroxisome proliferator-activated receptor alpha (Homo sapiens, UniProt Q07869); assay: Compound was tested functionally in vitro for inducing 50% of the maximum alkaline phosphatase activity (Transactivation) against human Peroxisome proliferator activated receptor alpha using transfection assay in CV-1 cells; assay type: functional, cell-based
T7 sequence (Q07869 whole entry): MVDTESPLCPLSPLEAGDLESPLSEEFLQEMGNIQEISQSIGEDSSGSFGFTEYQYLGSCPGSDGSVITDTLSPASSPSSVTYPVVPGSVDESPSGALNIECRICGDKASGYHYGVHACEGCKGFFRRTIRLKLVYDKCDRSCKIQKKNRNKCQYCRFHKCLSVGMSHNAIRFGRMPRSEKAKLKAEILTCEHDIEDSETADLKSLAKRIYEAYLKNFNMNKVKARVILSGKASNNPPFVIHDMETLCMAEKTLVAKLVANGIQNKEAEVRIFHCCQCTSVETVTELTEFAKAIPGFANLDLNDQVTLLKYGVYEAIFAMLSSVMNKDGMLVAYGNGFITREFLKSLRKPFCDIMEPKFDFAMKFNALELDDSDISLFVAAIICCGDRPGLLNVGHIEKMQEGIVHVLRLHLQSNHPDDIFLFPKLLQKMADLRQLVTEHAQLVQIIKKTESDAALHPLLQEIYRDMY

[22] = target: T8, Peroxisome proliferator-activated receptor alpha (Homo sapiens) (UniProt Q07869); assay: The compound was tested in vitro for inhibiting the 50% binding of Peroxisome proliferator activated receptor alpha
T8 sequence (whole entry): T7 sequence (Q07869 whole entry)

[23] = target: T4, Peroxisome proliferator-activated receptor gamma (Homo sapiens); conditions: 10e-4 M
Description: Compound was tested for its ability to promote differentiation of C3H10T1/2 stem cells to adipocytes using lipogenesis assay mediated through activation of Peroxisome proliferator activated receptor gamma; IA = Inactive at 10e-4 M

[24] = target: T8, Peroxisome proliferator-activated receptor alpha (Homo sapiens); conditions: CV-1; 10e-4 M

| SMILES | Reduction (Mus musculus [1]) | Reduction (Rattus norvegicus [2]) | Log EC50 [3] | Reduction (Mus musculus [4]) | Reduction (Rattus norvegicus [5]) | Log EC50 [6] | body weight increase % (Mus musculus [7]) | Reduction (Mus musculus [8]) | Log EC50 [9] | Reduction (Rattus norvegicus [10]) | Reduction (Rattus norvegicus [11]) | EC50 [17] | EC50 [18] | Ki [19] | also measured |
| --- | --- | --- | --- | --- | --- | --- | --- | --- | --- | --- | --- | --- | --- | --- | --- |
| Cc1oc(-c2ccccc2)nc1CCOc1ccc(C[C@H](Nc2ccccc2C(=O)c2ccccc2)C(=O)O)cc1 [FARGLITAZAR] | 65% | 75% | inactive | 54% | 77% | inactive | 17% | 56% | inactive | 33% | 65% |  |  |  |  |
| Cc1c(C)c2c(c(C)c1O)CCC(C)(COc1ccc(CC3SC(=O)NC3=O)cc1)O2 (stereo not given) [TROGLITAZONE] |  |  |  |  |  |  |  |  |  |  |  |  |  |  | Reduction (Rattus norvegicus [12]): 61%; Reduction (Rattus norvegicus [13]): 87%; Reduction (Rattus norvegicus [14]): 81%; Reduction (Rattus norvegicus [15]): 29% |
| CN(CCOc1ccc(C[C@H](Nc2ccccc2C(=O)c2ccccc2)C(=O)O)cc1)c1nc2ccccc2o1 | 41% |  | inactive | 36% |  | inactive | 9% | 38% | inactive |  |  | 4.68 nM | 2.63 nM | 1.48 nM | Log Ki [16]: 8.83 µM; Log EC50 [20]: -8.58; EC50 [21]: 6460 nM; pKi [22]: 5.92 |
| CN(CCOc1ccc(CC(Nc2cccc3c2C(=O)c2ccccc2C3=O)C(=O)O)cc1)c1nc2ccccc2o1 (stereo not given) |  |  |  |  |  |  |  |  |  |  |  |  | 5.01 nM | 5.13 nM | Log EC50 [23]: inactive |
| CN(CCOc1ccc(C[C@H](Nc2ccccc2C(=O)c2ccccc2)C(=O)O)cc1)c1ccccn1 (stereo in doubt; 18) | 58% | 73% | inactive | 61% | 87% | inactive | 6% | 46% | inactive | 37% | 68% | 13.2 nM |  |  | Log EC50 [24]: inactive |
